According to US20250171432A1, “COMPOUNDS AND METHODS OF USE” (Tango Therapeutics, Inc., priority 2022, published 2025):

Experiments:
Type in all cases: cell-based
[1] = system: SDMA (PRMT5 activity) in HAP1 MTAP-deleted cell line; assay: SDMA in-cell western assay, HAP1 MTAP-deleted; details: for IC50 / IC90: Homo sapiens, SDMA in-cell western, HAP1 MTAP-deleted cells, 24 hours compound incubation; for Hap1 MTAP intact/deleted ratio: ratio of SDMA IC50 in HAP1 MTAP-intact to HAP1 MTAP-deleted cell line
Protocol: (§1) The SAM-cooperative PRMT5 inhibitor, GSK3326595, was sourced from SelleckChem and maintained as a 10 mM DMSO stock. All test compounds are maintained as 10 mM DMSO stocks
(§2) On Day 0, MTAP-intact or MTAP-deleted cells are seeded in a 384-well plate, and incubated in a humidified, 5% CO2 tissue culture incubator for 16-24 hours. On Day 1, the test compounds are dispensed to wells at defined concentrations using a Tecan D300e digital dispenser (n=4), and the volume of DMSO is normalized to highest class volume. Each plate includes wells dosed with defined concentrations of GSK33226595 as a plate control. The compounds are incubated with cells for 24 hours in a humidified, 5% CO2 tissue culture incubator.
(§3) On Day 2, the compound-treated cells are fixed with a final concentration of 4% formaldehyde. The cells are then washed/permeabilized with 1×PBS+0.1% Triton X-100, and then blocked with 5% goat serum/1×TBS.
(§4) The cells are washed with 1×PBS+0.1% Triton X-100, and then washed again with ddH20. The plates are then imaged using a NIR fluorescent imager (LiCor Odyssey).
(§5) For data analysis, the SDMA signal is normalized to the DRAQ5 signal. Assay background is determined by the signal from wells treated with 1 μM GSK3326595, and subtracted from every well. The data are plotted as % of the DMSO control wells for the MTAP-intact and the MTAP-deleted cell lines independently, and fitted to the 4-parameter logistic (4-PL) Hill equation with maximal effect constrained to 0. The fit was performed using GraphPad Prism or the default IC50 fitting procedure in Dotmatics Studies 5.4 as part of a customized data analysis protocol.

[2] = system: HAP1 MTAP-deleted cell line; assay: Viability assay (CellTiter-Glo), HAP1 MTAP-deleted; details: Homo sapiens, 168 h, HAP1 MTAP-deleted cells, 7 days
Protocol: All test compounds are maintained as 10 mM DMSO stocks.
On Day 0, MTAP-intact and MTAP-deleted cells are seeded in a 96-well plate, and incubated in a humidified, 5 or 10% CO2 tissue culture incubator for 16-24 hours. On Day 1, the test compounds are dispensed to wells at defined concentrations using a Tecan D300e digital dispenser (n=3), and the volume of DMSO is normalized to highest class volume (0.2%). The compound-treated plates are incubated for 7 days in a humidified, 5 or 10% CO2 tissue culture incubator.
On Day 7, the plates are removed from the tissue culture incubator and allowed to equilibrate to room temperature. Then either a ½% volume CellTiter-Glo Luminescent Cell Viability Assay reagent (Promega G7572) is added to each well, or the media is removed from every well and a 1:3 dilution of CellTiter-Glo 2.0 Cell Viability Assay reagent (Promega G9241) in 1×PBS is added. Ten minutes after addition, the luminescent signal is detected by an Envision plate reader. The data are plotted as % of the DMSO control wells for the MTAP-intact and the MTAP-deleted cell lines independently, and fitted to the 4-parameter logistic (4-PL) Hill equation with maximal effect constrained to 0. The fit was performed using GraphPad Prism or the default IC50 fitting procedure in Dotmatics Studies 5.4 as part of a customized data analysis protocol.

[3] = system: SDMA (PRMT5 activity) in HAP1 MTAP-intact cell line; assay: SDMA in-cell western assay, HAP1 MTAP-intact; details: Homo sapiens, HAP1, 24 h, SDMA in-cell western, HAP1 MTAP-intact cells, 24 hours compound incubation
Protocol: as §1, §2, §3, §4, §5

Structure (SMILES) | IC50 [1] [µM] | IC90 [1] [µM] | Hap1 MTAP intact/deleted ratio [1] | IC50 [2] [µM] | IC50 [3] [µM]
COc1ncc(NC(=O)C(=O)N2C[C@@H](C)CC[C@@H]2c2ccc3sc(C4CCN(C)C4(C)C)nc3c2)cc1C(N)=O (mixture of isomers) [Compound 87, 2-methoxy-5-(2-((2R,5S)-5-methyl-2-(2-(rac-(S)-1,2,2-trimethylpyrrolidin-3-yl)benzo[d]thiazol-5-yl)piperidin-1-yl)-2-oxoacetamido)nicotinamide] | < 0.005 | < 0.075 | A (“A” indicates an IC50 ratio greater than or equal to 30 fold) | < 0.1 | > 0.05
CCc1cc(NC(=O)C(=O)N2C[C@@H](C)CC[C@@H]2c2ccc3cn([C@H]4CCOC4)nc3c2)cnc1N (racemic) [Compound 93, N-(6-amino-5-ethyl-3-pyridyl)-2-oxo-2-[rac-(2R,5S)-5-methyl-2-(2-tetrahydrofuran-3-ylindazol-6-yl)-1-piperidyl]acetamide] | 0.005 to 0.05 | < 0.075 | A (“A” indicates an IC50 ratio greater than or equal to 30 fold) | < 0.1 | > 0.05
COc1ncc(NC(=O)C(=O)N2C[C@@H](C)CC[C@@H]2c2ccc3sc([C@@H]4C[C@@H](C)CN(C)C4)nc3c2)cc1C(N)=O (racemic) [Compound 94, 5-(2-((2R,5S)-2-(2-(1,5-dimethylpiperidin-3-yl)benzo[d]thiazol-5-yl)-5-methylpiperidin-1-yl)-2-oxoacetamido)-2-methoxynicotinamide] | < 0.005 | < 0.075 | A (“A” indicates an IC50 ratio greater than or equal to 30 fold) | < 0.1 | > 0.05
COc1ncc(NC(=O)C(=O)N2C[C@@H](C)CC[C@@H]2c2ccc3cn([C@H]4CCOC4)nc3c2)cc1C(N)=O (racemic) [Compound 97, 2-methoxy-5-[[2-oxo-2-[rac-(2R,5S)-5-methyl-2-(2-tetrahydrofuran-3-ylindazol-6-yl)-1-piperidyl]acetyl]amino]pyridine-3-carboxamide] | 0.005 to 0.05 | 0.075 to 0.125 | A (“A” indicates an IC50 ratio greater than or equal to 30 fold) | 0.1 to 1 | > 0.05
CCc1cc(NC(=O)C(=O)N2C[C@@H](C)CC[C@@H]2c2ccc3sc(CC(C)N4CCCC4)nc3c2)cnc1N (mixture of isomers) [Compound 116, N-(6-amino-5-ethylpyridin-3-yl)-2-((2R,5S)-5-methyl-2-(2-(2-(pyrrolidin-1-yl)propyl)benzo[d]thiazol-5-yl)piperidin-1-yl)-2-oxoacetamide] | < 0.005 | < 0.075 | A (“A” indicates an IC50 ratio greater than or equal to 30 fold) | < 0.1 | > 0.05
CCc1cc(NC(=O)C(=O)N2C[C@@H](C)CC[C@@H]2c2ccc3sc([C@@H]4C[C@@H](C)CN(C)C4)nc3c2)cnc1N (racemic) [Compound 118, N-(6-amino-5-ethylpyridin-3-yl)-2-((2R,5S)-2-(2-(1,5-dimethylpiperidin-3-yl)benzo[d]thiazol-5-yl)-5-methylpiperidin-1-yl)-2-oxoacetamide] | < 0.005 | < 0.075 | C (“C” indicates an IC50 ratio of less than 15 fold) | < 0.1 | 0.005 to 0.05
CCc1cc(NC(=O)C(=O)N2C[C@@H](C)CC[C@@H]2c2ccc3sc(C4CN(C)CC(=O)N4C)nc3c2)cnc1N (mixture of isomers) [Compound 125, N-(6-amino-5-ethylpyridin-3-yl)-2-((2R,5S)-2-(2-(1,4-dimethyl-6-oxopiperazin-2-yl)benzo[d]thiazol-5-yl)-5-methylpiperidin-1-yl)-2-oxoacetamide] | 0.005 to 0.05 | 0.075 to 0.125 | B (“B” indicates an IC50 ratio greater than or equal to 15 fold but lower than 30 fold) | < 0.1 | > 0.05
